Source: ChEMBL document CHEMBL1152318, “Antitumor psoropermum xanthones and sarcomelicope acridones: privileged structures implied in DNA alkylation” (J Nat Prod, 2009)

Legend:
[1] = Cytotoxicity against human KB-3-1 cells; format: functional, cell-based
L1210 [2] = assay: Cytotoxicity against mouse L1210 cells; format: functional, cell-based
MC-38 [3] = assay: Antitumor activity against […] cells […] in B6D2F1 mouse assessed as tumor growth at 12.5 mg/kg, ip relative to control; format: functional; settings: route intraperitoneal
L1210 [4] = assay: Ratio of acronycine IC50 to compound IC50 for mouse L1210 cells; format: functional
P388 [5] = assay: Antitumor activity against mouse P388 cells xenografted in B6D2F1 mouse assessed as median survival at 50 mg/kg, ip relative to control; format: functional; settings: route intraperitoneal
L1210 [6] = assay: Ratio of IC50 for human KB-3-1 cells to IC50 for mouse L1210 cells; format: functional
P388 [7] = assay: Antitumor activity against mouse P388 cells xenografted in B6D2F1 mouse assessed as median survival at 12.5 mg/kg, ip relative to control; format: functional; settings: route intraperitoneal
P388 [8] = assay: Antitumor activity against mouse P388 cells xenografted in B6D2F1 mouse assessed as median survival at 25 mg/kg, ip relative to control; format: functional; settings: route intraperitoneal
OVCAR-3 = assay: Antitumor activity against human OVCAR-3 cells xenografted in BALB/c nude mouse assessed as increase in survival administered twice by intravenous route; format: functional, cell-based
MC-38 [9] = assay: Antitumor activity against […] cells […] in B6D2F1 mouse assessed as tumor growth at 6.25 mg/kg, ip relative to control; format: functional; settings: route intraperitoneal
IGROV-1 [10] = assay: Antitumor activity against human IGROV1 cells xenografted in BALB/c nude mouse assessed as increase in survival administered twice by intravenous route; format: functional, cell-based
A549 = assay: Antitumor activity against human A549 cells xenografted in BALB/c nude mouse assessed as increase in survival administered twice by intravenous route; format: functional, cell-based
MC-38 [11] = assay: Antitumor activity against […] cells […] in B6D2F1 mouse assessed as inhibition of tumor growth at 6.25 mg/kg, ip; format: functional; settings: MC-38, ip, route intraperitoneal, read-out: TGI
NCI-H460 [12] = assay: Antitumor activity against human NCI-H460 cells xenografted in BALB/c nude mouse administered twice 6.25 mg/kg, iv relative to control; format: functional
IGROV-1 [13] = assay: Antitumor activity against human IGROV1 cells xenografted in BALB/c nude mouse administered twice 6.25 mg/kg, iv relative to control; format: functional
NCI-H460 [14] = assay: Antitumor activity against human NCI-H460 cells xenografted in BALB/c nude mouse assessed as increase in survival administered twice by intravenous route; format: functional, cell-based
MC-38 [15] = assay: Antitumor activity against […] cells […] in B6D2F1 mouse assessed as tumor growth at 200 mg/kg, ip relative to control; format: functional; settings: route intraperitoneal
P388 [16] = assay: Antitumor activity against mouse P388 cells xenografted in B6D2F1 mouse assessed as median survival at 200 mg/kg, ip relative to control; format: functional; settings: route intraperitoneal
SMMC-7721 = assay: Cytotoxicity against human SMMC7721 cells; format: functional, cell-based
HCT-116 = assay: Cytotoxicity against human HCT116 cells; format: functional, cell-based
SGC-7901 = assay: Cytotoxicity against human SGC7901 cells; format: functional, cell-based
A-431 = assay: Cytotoxicity against human A431 cells by MTT assay; format: functional, cell-based
MCF7 = assay: Cytotoxicity against human MCF7 cells by MTT assay; format: functional, cell-based
HeLa = assay: Cytotoxicity against human HeLa cells by MTT assay; format: functional, cell-based
[17] = Cytotoxicity against human 9KB cells; format: functional, cell-based
P388 [18] = assay: In vivo cytotoxicity against mouse P388 cells at 8 mg/kg relative to control; format: functional
[19] = Homo sapiens, A-431, read-out: IC50
[20] = Homo sapiens, HeLa, read-out: IC50

Molecule `COc1cc2c(c3c1c(=O)c1cc4ccccc4cc1n3C)C[C@H]([C@@]1(C)CO1)O2` has an IC50 [1] of 10 nM and an IC50 (L1210 [2]) of 10 nM.

`COc1cc2c(c3c1c(=O)c1cc4ccccc4cc1n3C)C[C@H]([C@]1(C)CO1)O2` gave an IC50 [1] of 10 nM and an IC50 (L1210 [2]) of 10 nM.

With `COc1cc2c(c3c1c(=O)c1ccccc1n3C)[C@@H](OC(C)=O)[C@@H](OC(=O)c1ccccc1)C(C)(C)O2` (racemic) the T/C (MC-38 [3]) was 13%, the “Ratio IC50” value (L1210 [4]) was 5 and the T/C (P388 [5]) was 201%.

With `CCC(=O)O[C@@H]1c2c(cc(OC)c3c(=O)c4c5ccccc5ccc4n(C)c23)OC(C)(C)[C@@H]1OC(=O)CC` (racemic) the “Ratio IC50” value (L1210 [6]) was 3.

In the case of `COc1cc2c(c3c1c(=O)c1c4ccccc4ccc1n3C)[C@@H](OC(=O)CC(C)C)[C@@H](OC(=O)CC(C)C)C(C)(C)O2` (racemic), the “Ratio IC50” value (L1210 [6]) is reported as 3.

With `COc1cc2c(c3c1c(=O)c1cc4ccccc4cc1n3C)[C@@H](OC(=O)CC(C)C)[C@@H](OC(=O)CC(C)C)C(C)(C)O2` (racemic) the “Ratio IC50” value (L1210 [6]) was 3.

For `COc1cc2c(c3c1c(=O)c1cc4ccccc4cc1n3C)[C@@H](OC(C)=O)[C@@H](OC(=O)CC(C)C)C(C)(C)O2` (racemic), the “Ratio IC50” value (L1210 [6]) was 3.

In the case of `CCC(=O)O[C@@H]1c2c(cc(OC)c3c(=O)c4cc5ccccc5cc4n(C)c23)OC(C)(C)[C@@H]1OC(=O)CC` (racemic), the “Ratio IC50” value (L1210 [6]) is reported as 3.

For `COc1cc2c(c3c1c(=O)c1c4ccccc4ccc1n3C)[C@@H](OC(C)=O)[C@@H](OC(C)=O)C(C)(C)O2` (racemic), the “Ratio IC50” value (L1210 [6]) was 3.

In the case of `COc1cc2c(c3c1c(=O)c1c4ccccc4ccc1n3C)[C@@H](OC(C)=O)[C@@H](OC(=O)CC(C)C)C(C)(C)O2` (racemic), the “Ratio IC50” value (L1210 [6]) is reported as 3.

Molecule `COc1cc2c(c3c1c(=O)c1ccccc1n3C)[C@@H](OC(C)=O)[C@H](OC(C)=O)C(C)(C)O2` (racemic) has a T/C (P388 [7]) of 181%.

In the case of `COc1cc2c(c3c1c(=O)c1ccccc1n3C)[C@@H](OC(C)=O)[C@@H](OC(C)=O)C(C)(C)O2` (racemic), the T/C (MC-38 [3]) is reported as 0%, the “Ratio IC50” value (L1210 [4]) is reported as 5 and the T/C (P388 [8]) is reported as 289%.

For `COc1cc2c(c3c1c(=O)c1cc4ccccc4cc1n3C)[C@@H](OC(C)=O)[C@@H](OC(C)=O)C(C)(C)O2` (racemic), the Activity (OVCAR-3) was “Dose-dependent effect”, the “Ratio IC50” value (L1210 [6]) was 3 and the T/C (P388 [7]) was 327%. For the same molecule, the T/C (MC-38 [9]) was 4%, the Activity (IGROV-1 [10]) was “Dose-dependent effect” and the Activity (A549) was “Dose-dependent effect”. For the same molecule, the inhibition in vivo at 6.25 mg/kg (MC-38 [11]) was 96%, the T/C (NCI-H460 [12]) was 162% and the T/C (IGROV-1 [13]) was 193%. For the same molecule, the Activity (NCI-H460 [14]) was “Dose-dependent effect”.

Work on `COc1cc2c(c3c1c(=O)c1ccccc1n3C)C=CC(C)(C)O2` [ACRONINE] yielded a T/C (MC-38 [15]) of 4% and a T/C (P388 [16]) of 125%.

In the case of `COc1cc2c(c3c1c(=O)c1c4ccccc4ccc1n3C)C=CC(C)(C)O2` [BENZO[A]ACRONYCINE], the “Ratio IC50” value (L1210 [4]) is reported as 4.

For `COc1cc2c(c3c1c(=O)c1cc4ccccc4cc1n3C)C=CC(C)(C)O2` [BENZO[B]ACRONYCINE], the “Ratio IC50” value (L1210 [4]) was 4.

`COc1cc2c(c3c1c(=O)c1ccc4ccccc4c1n3C)C=CC(C)(C)O2` [BENZO[C]ACRONYCINE] gave an IC50 (L1210 [2]) of 12100 nM.

For `C=CC(C)(C)c1c(O)cc(O)c2c(=O)c3c(CC=C(C)C)c(O)c(O)cc3oc12` [CUDRATRICUSXANTHONE A], the IC50 (SMMC-7721) was 4000 nM, the IC50 (HCT-116) was 4000 nM and the IC50 (SGC-7901) was 4000 nM.

Work on `COCC(C)(O)C1Cc2c(cc(O)c3c(=O)c4ccccc4n(C)c23)O1` (centres undefined) [GRAVACRIDONDIOLMONOMETHYL ETHER] yielded an IC50 (A-431; [19]) of 3000 nM, an IC50 (MCF7) of 3000 nM and an IC50 (HeLa; [20]) of 3000 nM.

Work on `Cn1c2ccccc2c(=O)c2c(O)cc3c(c21)CC(C(C)(O)CO)O3` (centres undefined) [GRAVACRIDONDIOL] yielded an IC50 (A-431; [19]) of 3000 nM, an IC50 (MCF7) of 3000 nM and an IC50 (HeLa; [20]) of 3000 nM.

For `Cn1c2ccccc2c(=O)c2c(O)cc3c(c21)CC(C(O)(CO)CO)O3` (centres undefined) [GRAVACRIDONTRIOL], the IC50 (A-431; a-431) was “Active” and the IC50 (HeLa; hela) was “Active”.

`COc1cc2c(c3oc4c(O)cccc4c(=O)c13)C[C@H]([C@@]1(C)CO1)O2` [PSOROSPERMIN] showed an IC50 [17] of 290 nM and a T/C (P388 [18]) of 158%.

For `C=C(C)[C@H]1Cc2c(cc(O)c3c(=O)c4ccccc4n(C)c23)O1` [RUTACRIDONE], the IC50 (A-431; [19]) was 3000 nM, the IC50 (MCF7) was 3000 nM and the IC50 (HeLa; [20]) was 3000 nM.
